A short description of data set [1]: Selectivity index, ratio of CC50 for human MT4 cells to EC50 for antiviral activity against HIV IIIB.
Data set [2] is described as follows: Cytotoxicity against human MT4 cells assessed as reduction in cell viability by MTT assay. The data set is classed as toxicity, cell-based. For orientation: Tetrazolium assays rely on reduction of a dye to a coloured formazan, in cell work by metabolically active cells.
Data set [3] relates to Human immunodeficiency virus 1. The experiment in a line: Antiviral activity against HIV1 NL4-3 infected in MT4 cells at 25 ng/ml. The data set is classed as functional, organism-based.
The next data set deals with MT4. Put plainly: Cytotoxicity against human MT4 cells. It counts as toxicity, cell-based.
Data set [4] deals with Human immunodeficiency virus type 1 reverse transcriptase (Human immunodeficiency virus 1, UniProt Q72547). The experiment in a line: Inhibition of wild type HIV-1 reverse transcriptase.
Data set [5] concerns Human immunodeficiency virus 1. Put plainly: microbe, parasite or virus in culture. Conditions: Human immunodeficiency virus 1, IIIB, MT4.
Description: Antiviral activity against HIV1 IIIB infected in MT-4 cells assessed as viral induced cytopathic effect by MTT assay
In data set [6] the test system is Human immunodeficiency virus 1. The experiment in a line: microbe, parasite or virus in culture. The conditions noted are these: Human immunodeficiency virus 1, RES056, MT4.
Description: (§1) Antiviral activity against HIV1 RES056 infected in MT-4 cells assessed as viral induced cytopathic effect by MTT assay
Data set [7] relates to Human immunodeficiency virus 1. The experiment in a line: Antiviral activity against HIV1 NL4-3 infected in MT4 cells. Conditions: Human immunodeficiency virus 1, NL4-3, MT4. It counts as functional, organism-based.
Data set [8] relates to Human immunodeficiency virus 1. The conditions noted are these: RES056, MT4.
Description: as §1
Data set [9] concerns Human immunodeficiency virus 1. The experiment in a line: Antiviral activity against HIV1 harboring K103N mutant infected in MT4 cells. It counts as functional, organism-based. Conditions: Human immunodeficiency virus 1, MT4.
Data set [10] can be described thus: Selectivity index, ratio of CC50 for human MT4 cells to EC50 for antiviral activity against HIV RES056.
Data set [11] deals with Human immunodeficiency virus 1. The experiment in a line: Antiviral activity against HIV1 harboring E138K mutant infected in MT4 cells. Conditions: Human immunodeficiency virus 1, MT4. It counts as functional, organism-based.
Data set [12] concerns Human immunodeficiency virus 1. Put plainly: Antiviral activity against HIV1 harboring Y181C mutant infected in MT4 cells. It counts as functional, organism-based. The conditions noted are these: Human immunodeficiency virus 1, MT4.
Data set [13] has as its system Human immunodeficiency virus 1. The experiment in a line: Antiviral activity against HIV1 harboring L100I mutant infected in MT4 cells. It counts as functional, organism-based. Conditions: Human immunodeficiency virus 1, MT4.
Data set [14] has as its system Human immunodeficiency virus 1. Put plainly: Antiviral activity against HIV1 harboring Y188L mutant infected in MT4 cells. The data set is classed as functional, organism-based. The conditions noted are these: Human immunodeficiency virus 1, MT4.
For data set [15], the system named is Human immunodeficiency virus 1. Put plainly: Antiviral activity against HIV1 harboring F227L/V106A double mutant infected in MT4 cells. Conditions: Human immunodeficiency virus 1, MT4. It counts as functional, organism-based.

These results are taken from ChEMBL document CHEMBL5620408, “Discovery of novel diarypyrimidine derivatives bearing six-membered non-aromatic heterocycles as potent HIV-1 NNRTIs with improved anti-resistance and drug-like profiles” (Eur J Med Chem, 2023).

pEC50, pIC50: −log10 of the molar value. The source made the active and inactive calls. The rule behind the calls is not given here. Some results are limits rather than exact numbers.

As usually defined, the CC50 is the concentration that lowers cell viability or growth by half. Usually pIC50 stands for the negative decadic logarithm of the IC50, by convention in mol/L. Read a low pIC50 as a high IC50. In general, pEC50 refers to the EC50 on a negative log10 scale, so that one unit is a factor of ten. In the case of `Cc1cc(C#N)cc(C)c1Oc1ccnc(Nc2ccc(N3CCN(S(=O)(=O)N(C)C)CC3)c(F)c2)n1`, the selectivity ratio in data set [1] turned out to be 10300. Also, the cytotoxic concentration (CC50) in [2] stood at 186000 nM. In data set [3], the outcome was inactive. Moreover, the Activity entry with MT4 was “Non-Toxic”. The compound also had a pIC50 in data set [4] of 6.82. Besides, the pEC50 was 7.74 in data set [5] and less than 3.73 in data set [6].

As for `Cc1cc(/C=C/C#N)cc(C)c1Oc1ccnc(Nc2ccc(N3CCN(S(=O)(=O)C4CC4)CC3)c(F)c2)n1`, the selectivity ratio in data set [1] is 32100. In data set [2], the CC50 came out at 170000 nM. In addition, in the data set on MT4, the Activity result was “Non-Toxic”. For the same compound, the pIC50 in data set [4] was 7.00. In addition, the figures for the pEC50 in data set [5] and in data set [7] were 8.30 and 8.25, respectively. Further, the result in data set [8] was inactive.

For `Cc1cc(C#N)cc(C)c1Oc1ccnc(Nc2ccc(C3CCN(S(C)(=O)=O)CC3)cc2)n1`, the outcome in data set [3] was inactive. In addition, the Activity result in the data set with MT4 was “Non-Toxic”.

Take `Cc1cc(C#N)cc(C)c1Oc1ccnc(Nc2ccc(N3CCN(S(=O)(=O)C4CC4)CC3)cc2)n1`: the result in data set [3] was inactive. Besides, in the data set with MT4, the Activity result was “Non-Toxic”.

`Cc1cc(C#N)cc(C)c1Oc1ccnc(Nc2ccc(N3CCN(S(=O)(=O)N(C)C)CC3)cc2)n1`: the result in data set [3] was inactive. In addition, in the data set on MT4, the Activity result is on record as “Non-Toxic”.

Turning to `Cc1cc(C#N)cc(C)c1Oc1ccnc(Nc2ccc(C3CCN(S(=O)(=O)C(C)C)CC3)cc2)n1`, the result in data set [3] was inactive. In addition, in the data set with MT4, the Activity entry is on record as “Non-Toxic”.

`Cc1cc(C#N)cc(C)c1Oc1ccnc(Nc2ccc(C3CCN(S(=O)(=O)N(C)C)CC3)cc2)n1`: the result in data set [3] was inactive. Moreover, the Activity entry in the data set with MT4 is reported as “Non-Toxic”.

In the case of `CCS(=O)(=O)N1CCN(c2ccc(Nc3nccc(Oc4c(C)cc(/C=C/C#N)cc4C)n3)cc2F)CC1`, the selectivity ratio in data set [1] was 37900; in [10] it was 64. Further, the CC50 in data set [2] turned out to be 111000 nM. Also, the Activity entry in the data set with MT4 is listed as “Non-Toxic”. In data set [4], this compound had a pIC50 of 7.27. In addition, the pEC50 was 8.52 in data set [5]; 5.76 in data set [6]; 8.40 in [9]; 7.82 in data set [11]; 7.52 in data set [12]; 8.79 in [7]. In addition, the negative-log EC50 (pEC50) was 7.68 in [13], less than 3.95 in [14] and 7.44 in data set [15].

`Cc1cc(C#N)cc(C)c1Oc1ccnc(Nc2ccc(C3CCN(S(=O)(=O)C4CC4)CC3)cc2)n1`: the result in data set [3] was inactive. Moreover, the Activity entry with MT4 was “Non-Toxic”.

As to `Cc1cc(/C=C/C#N)cc(C)c1Oc1ccnc(Nc2ccc(C3CCN(S(C)(=O)=O)CC3)cc2)n1`, the selectivity ratio in data set [1] was 1030; in [10] it was less than 1. Also, in data set [2], the CC50 is 4300 nM. Also, the Activity result with MT4 is recorded as “Non-Toxic”. This compound showed a pIC50 in [4] of 7.36. Also, the pEC50 in data set [5] was 8.40; in data set [6] it was less than 5.37; in [9] it was 7.85; in data set [11], 7.52; in data set [12], 6.49; in [7], 8.21. For the same compound, the negative logarithm of the EC50 (pEC50) is 7.04 in data set [13], less than 5.37 in data set [14] and 7.38 in [15].

For the compound `Cc1cc(C#N)cc(C)c1Oc1ccnc(Nc2ccc(N3CCN(S(C)(=O)=O)CC3)cc2)n1`, the result in data set [3] was inactive. The Activity result in the data set with MT4 is “Non-Toxic”.

On to `CCS(=O)(=O)N1CCC(c2ccc(Nc3nccc(Oc4c(C)cc(C#N)cc4C)n3)cc2)CC1`, for which the result in [3] was inactive. In addition, in the data set on MT4, the Activity entry is on record as “Non-Toxic”.

Take `Cc1cc(/C=C/C#N)cc(C)c1Oc1ccnc(Nc2ccc(N3CCN(S(C)(=O)=O)CC3)cc2)n1`: the selectivity ratio was 536 in data set [1] and less than 1 in [10]. For the same compound, the half-maximal cytotoxic concentration (CC50) in data set [2] turned out to be 2570 nM. For the same compound, in the data set on MT4, the Activity entry is listed as “Non-Toxic”. The same compound gave a negative-log IC50 (pIC50) in data set [4] of 7.19. Moreover, the pEC50 is 8.30 in data set [5]; less than 5.59 in data set [6]; 7.43 in data set [9]; 6.07 in data set [11]; 6.02 in data set [12]; 8.74 in data set [7]. The pEC50 is 6.43 in data set [13], less than 5.59 in data set [14] and 6.57 in data set [15].

`Cc1cc(/C=C/C#N)cc(C)c1Oc1ccnc(Nc2ccc(N3CCN(S(C)(=O)=O)CC3)c(F)c2)n1`: the selectivity ratio was determined as 1710 in data set [1] and 5 in data set [10]. Besides, the 50% cytotoxic concentration (CC50) in data set [2] worked out at 3210 nM. For the same compound, in the data set with MT4, the Activity result is recorded as “Non-Toxic”. This compound had a pIC50 in data set [4] of 7.40. The pEC50 is 8.70 in data set [5]; 6.17 in data set [6]; 8.52 in data set [9]; 7.96 in data set [11]; 7.52 in data set [12]; 9.32 in [7]. Also, the pEC50 in data set [13] was 7.66; in data set [14], less than 5.49; in data set [15] it was 7.47.

Regarding `Cc1cc(/C=C/C#N)cc(C)c1Oc1ccnc(Nc2ccc(N3CCN(S(=O)(=O)C(C)C)CC3)c(F)c2)n1`, the selectivity ratio in data set [1] came out at 3620; in [10], 3. Besides, the CC50 in data set [2] worked out at 18100 nM. Further, the Activity entry with MT4 is on record as “Non-Toxic”. The same compound showed a pIC50 in data set [4] of 7.01. The pEC50 is 8.30 in data set [5]; 5.23 in [6]; 8.15 in [9]; 7.54 in data set [11]; 7.03 in [12]; 8.28 in data set [7]. The negative-log EC50 (pEC50) in data set [13] was 7.38; in data set [14], less than 4.74; in [15], 7.00.

Take `Cc1cc(C#N)cc(C)c1Oc1ccnc(Nc2ccc(N3CCN(S(=O)(=O)C(C)C)CC3)cc2)n1`: the outcome in data set [3] was inactive. Further, in the data set on MT4, the Activity result was “Non-Toxic”.

`CCS(=O)(=O)N1CCN(c2ccc(Nc3nccc(Oc4c(C)cc(C#N)cc4C)n3)cc2)CC1`: the outcome in data set [3] was inactive. The Activity result in the data set with MT4 is on record as “Non-Toxic”.
